Reference: the supplement of paper PMC4314810
± gives the standard deviation of the averaged measurements.

tested on: MCF7; experiment: HRG-induced Akt activation (dPAkt = log2 pAkt/Akt HRG-stimulated minus log2 pAkt/Akt basal) (log2 ratio difference); higher = stronger HRG-induced Akt(T308) phosphorylation; conditions: miRNA mimic concentration 10 nM; time after transfection 72 h; heregulin 10 ng/ml; stimulation time 1 h
Procedure, shortened: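 Akt activation induced by heregulin was calculated as the difference between stimulated and unstimulated log ratios of phospho-Akt to total Akt, then averaged across replicates. The ratio was taken as log2(pAkt/Akt) from In-Cell Western readings of phospho-Akt(T308) and total Akt on an Odyssey, corrected for column-wise fixation decay. Before reading, MCF7 cells ([…], 96-well plates) transfected with 879 miRNA mimics at 10 nM final via Lipofectamine RNAiMax were, after 72 h, given 10 ng/ml heregulin-beta1 for 1 h or no stimulus, then fixed with 4% PFA. Two biological replicates were run.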

Sequence | HRG-induced Akt activation (log2)
CAUCUUACCGGACAGUGCUGGA | 1.841 ± 0.015
CGGGUGGAUCACGAUGCAAUUU | 2.37 ± 0.063
CGUGUUCACAGCGGACCUUGAU | 1.89 ± 0.39
UAGCUUAUCAGACUGAUGUUGA | 1.73 ± 0.11
AAUGACACGAUCACUCCCGUUGA | 1.48 ± 0.35
UGUCUACUACUGGAGACACUGG | 2.12 ± 0.15
GAACGCCUGUUCUUGCCAGGUGG | 1.4 ± 0.093
ACUCAAACUGUGGGGGCACU | 0.915 ± 0.061
AGCAGCAUUGUACAGGGCUAUCA | 1.35 ± 0.26
UCUCUGGGCCUGUGUCUUAGGC | 1.55 ± 0.3
UGAGCUAAAUGUGUGCUGGGA | 1.26 ± 0.69
UCAAGAGCAAUAACGAAAAAUGU | 1.91 ± 0.14
UCGGAUCCGUCUGAGCUUGGCU | 1.88 ± 0.18
AGGUUGUCCGUGGUGAGUUCGCA | 1.02 ± 0.18
AAAGUGCUUCUCUUUGGUGGGU | 0.92 ± 0.047
AAGCAGCUGCCUCUGAGGC | 2.16 ± 0.21
GUGGCUGCACUCACUUCCUUC | 1.16 ± 0.076
UCCUGUACUGAGCUGCCCCGAG | 1.79 ± 0.1
AAAAACUGAGACUACUUUUGCA | 1.33 ± 0.15
CUUCCUCGUCUGUCUGCCCC | 1.02 ± 0.055
UAAUACUGCCUGGUAAUGAUGA | 1.65 ± 0.49
GAUGAGCUCAUUGUAAUAUGAG | 1.71 ± 0.24
ACUUAAACGUGGAUGUACUUGCU | 1.93 ± 0.26
AAGCCUGCCCGGCUCCUCGGG | 1.81 ± 0.26
AAGUAGUUGGUUUGUAUGAGAUGGUU | 1.424 ± 0.014
GGCUAGCAACAGCGCUUACCU | 0.933 ± 0.081
UCGUACCGUGAGUAAUAAUGCG | 1.27 ± 0.031

Sequence | HRG-induced Akt activation (log2)
AGGCUGCGGAAUUCAGGAC | 1.56 ± 0.23
UAAAGUGCUUAUAGUGCAGGUAG | 1.57 ± 0.035
CUAGUGAGGGACAGAACCAGGAUUC | 1.82 ± 0.032
UGACCGAUUUCUCCUGGUGUUC | 2.09 ± 0.076
ACUCCAGCCCCACAGCCUCAGC | 1.84 ± 0.05
UGCCCUAAAUGCCCCUUCUGGC | 1.36 ± 0.27
CUUAGCAGGUUGUAUUAUCAUU | 1.81 ± 0.098
CAAAGUGCUGUUCGUGCAGGUAG | 1.46 ± 0.35
UAGAGUUACACCCUGGGAGUUA | 1.66 ± 0.19
CGCGGGUGCUUACUGACCCUU | 3.25 ± 0.033
AGGCGGAGACUUGGGCAAUUG | 2.43 ± 0.29
CUAGACUGAAGCUCCUUGAGG | 1.46 ± 0.25
AAUGCACCUGGGCAAGGAUUCA | 1.43 ± 0.42
CUGGAGAUAUGGAAGAGCUGUGU | 1.14 ± 0.047
AAAGUGCUUCCUUUUAGAGGGU | 0.665 ± 0.11
UUAAUAUCGGACAACCAUUGU | 1.72 ± 0.21
UGGUUGUAGUCCGUGCGAGAAUA | 1.37 ± 0.19
UGAGCCCUGUCCUCCCGCAG | 2.24 ± 0.29
AUAAGACGAGCAAAAAGCUUGU | 1.73 ± 0.05
UUUAACAUGGGGGUACCUGCUG | 1.59 ± 0.42
AACUGUUUGCAGAGGAAACUGA | 1.816 ± 0.014
AGGGAGGGACGGGGGCUGUGC | 1.89 ± 0.16
CCUCUGAAAUUCAGUUCUUCAG | 1.76 ± 0.071
UUAUGGUUUGCCUGGGACUGAG | 1.74 ± 0.28
UUUGUUCGUUCGGCUCGCGUGA | 1.23 ± 0.27
UAGAUAAAAUAUUGGUACCUG | 1.34 ± 0.55
